Assay results from patent US20230292746A1, “MIXTURES AND COMPOSITIONS COMPRISING 5-FLUORO-4-IMINO-3- METHYL-1-TOSYL-3,4-DIHYDROPYRIMIDIN-2-ONE, AND METHODS OF USE THEREOF” (Adama Makhteshim Ltd., priority 2020, published 2023).
Where “and” joins values, the source holds several entries; their conditions need not be identical. Equal values may be shown once.

What was measured:
[1] = test system: Zymoseptoria tritici strain Mg Tri-R6; assay: Fungicidal efficacy on treated wheat leaves inoculated with Z. tritici (AUDPC, intensity of infection); type: in vivo; details: 21 dpi
Experimental: Wheat crop (Winter wheat plants cv. Alixan (Limagrain) at the BBCH 12 growth stage) was treated with compositions comprising the compound of Formula I and adjuvants in different concentrations as built-in composition and/or as tank mix application.
All the tested compositions and mixtures were prepared in a volume of water corresponding to 200 L/ha and used 3 hours after preparation.
The SC composition of Example 1 was mixed with Trycol® (0.2 or 0.4 L per hectare) or Silwet (0.01 L per hectare) which were added as tank mix in 200 L volume of water.
The compositions and mixtures were applied with a hand sprayer at operating pressure of 2 bars. Three replicates (pots) of 6 wheat plants each were used for each condition tested.
After treatment, wheat plants were left to dry at room temperature for 1 hour and then incubated in a climatic chamber: Temperature of 24° C. day/18° C. night—Photoperiod of 16 h light/8 h dark and a Relative Humidity of 65%.
Fragments of the first leaf are cut and transferred in Petri dish containing adapted water agar (6 leaf fragments per Petri dish). Fragments are inoculated with a calibrated pycnospores suspension of Z. tritici strain Mg Tri-R6. […]
After incubation time of 21 days, the intensity of the infection, which is the surface of colonized leaf by Z. tritici strain, is assessed (quantitative criteria). The fungicidal efficacy on each composition is then determined in percent of the untreated control. […]
Disease assessments were carried out 21 days post inoculation (dpi) by measuring the length of the necrosis of the leaf fragment. The intensity of infection was then determined in percent of the total length of the leaf fragment.
The efficacy was calculated based on the Area Under the Disease Progress Curve (AUDPC) which is a quantitative measure of disease intensity over time. […]
The fungicide efficacies were determined from the AUDPC values and expressed in percent of the untreated control.

[2] = Storage stability: concentration / degradation of compound of Formula I in composition; type: physicochemical; details: for 2W/54° C. analysis (% of 10° C.): non-aqueous composition, 2 weeks at 54° C.
Text: As used herein, the term “stable” when used in connection with chemical stability, e.g. chemically stable, means that the composition meets the chemical stability standards set forth by the Food and Agriculture Organization of the United Nations (FAO) in the Manual on Development and Use of FAO and WHO Specification for Pesticides (First Edition—Third Revision) (the “FAO/WHO Manual”) (available at http://www.fao.org/agriculture/crops/thematic-sitemap/theme/pests/jmps/manual/en/), the entire content of which is hereby incorporate by reference into the subject application. […] The amount of degradation permitted before the degradation is considered to be significant depends on the concentration of the active ingredients in the composition.
The physical and chemical stability of composition of Example 1 were tested under various conditions including CIPAC conditions.

[3] = Water content of composition; type: physicochemical; details: non-aqueous composition
Text: As used herein, the term “water content” when used in connection with a composition, a mixture, or a component in the composition or mixture refers to the amount of free water in the composition, mixture or component of the composition or mixture and the water molecules chemically bound to another compound, such as water molecules in a hydrate.

[4] = 20% Hydrate and 80% Form I Polymorph
[5] = 45% Hydrate, and 55% Form I Polymorph

Cc1ccc(S(=O)(=O)n2cc(F)c(=N)n(C)c2=O)cc1 [compound of Formula I, 5-fluoro-4-imino-3-methyl-1-tosyl-3,4-dihydropyrimidin-2(1H)-one]
fungicidal efficacy compared to application without adjuvant ([1]; SC composition tank mixed with Silwet® (0.01 L/ha), wheat cv. Alixan): increased the efficacy and the effective fungicidal activity
fungicidal efficacy compared to application without adjuvant ([1]; SC composition tank mixed with Trycol® (0.2 or 0.4 L/ha), wheat cv. Alixan): increased the efficacy and the effective fungicidal activity
fungicidal efficacy compared to application without adjuvant ([1]; two adjuvants: Silwet® or Agnique® BP 420 with PVP or VP/VA, 10 g a.i./ha): increased the efficacy and the effective fungicidal activity
degradation of the compound of Formula I ([2]; 8 weeks of storage at 40° C., with Attagel 50 (0.5%) and Bentone SD-1 (0.5%)): 4%
degradation of the compound of Formula I ([2]; 8 weeks of storage at 40° C., without Attagel 50 and Bentone SD-1): 7-8%
degradation of the compound of Formula I ([2]; non-aqueous composition with water scavenger): ≤ 5%
degradation of the compound of Formula I ([2]; non-aqueous composition without water scavenger): 5-10%

Cc1ccc(S(=O)(=O)n2cc(F)c(=N)n(C)c2=O)cc1 [Hydrate I, 5-fluoro-4-imino-3-methyl-1-tosyl-3,4-dihydropyrimidin-2(1H)-one]
% Water Content [3, 4]: 0.24% and 0.22%
% Water Content [3, 5]: 0.35%
2W/54° C. analysis (% of 10° C.) [2, 4]: 88.5 % of 10 °C and 88.7 % of 10 °C
2W/54° C. analysis (% of 10° C.) [2, 5]: 89.3 % of 10 °C and 88.6 % of 10 °C
